Measurements taken from patent US20240067632A1, “WEE1 Degrading Compounds and Uses Thereof” (Bristol-Myers Squibb Company, priority 2022, published 2024).

Assays:
MKN45 cells = experiment: MKN45 cell proliferation assay (Cell-Titer-Glo, 120 h); type: cell-based; settings: for EC50: Homo sapiens, MKN-45, 120 h, Cell-Titer-Glo, growth inhibition, read-out: MKN45 Cell Prolif. 120 hr (EC50); for MKN45 Cell Prolif. 120 hr (Ymin-Obs): minimal percent of DMSO control observed in the concentrations tested
Procedure, shortened: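 Growth inhibition was read as blank-corrected Cell-Titer-Glo luminescence expressed as percent DMSO control after 120 h at 37 C, 400 cells/well. Compounds tested in triplicate as 10-point half-log series from 1 or 10 uM, 0.1% DMSO; four-parameter fit gave EC50, and lowest observed percent control was reported as Ymin-obs.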

WEE1 = biological target: T1, WEE1 (Homo sapiens, UniProt P30291+Q96SW2); experiment: WEE1-ePL degradation assay (LentiX-WEE1-ePL-GSPT1-ND cells, InCELL Hunter luminescence, 4 h); type: cell-based; settings: 293T-LentiX WEE1-ePL cells; for 293T-LentiX WEE1-ePL Degradation 4 hr (Ymin): lower limit of the fit (0 = luciferase inhibitor, Ymax = DMSO control); for DC50: read-out: 293T-LentiX WEE1-ePL Degradation 4 hr (EC50)
T1 construct: C-terminal ePL-tagged (DiscoverX, Fremont, CA) full-length WEE1 expression construct; expressed in transfected cells; host or cells: LentiX-HEK293T (Invitrogen), lentiviral transduction; co-expressing GSPT1-GN (G576N, lacking the first 158 amino acids)
Procedure, shortened: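 LentiX-HEK293T cells stably expressing C-terminally ePL-tagged full-length WEE1 were treated with compounds in a 10-point, 3-fold dilution series starting at 1 uM or 10 uM for 4 h at 37 °C. Remaining WEE1-ePL was detected by InCELL Hunter luminescence, and EC50, Ymin and Ymax came from a four-parameter logistic fit against DMSO control.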

| Compound | EC50 (MKN45 cells) | 293T-LentiX WEE1-ePL Degradation 4 hr (Ymin) (WEE1) | DC50 (WEE1) | MKN45 Cell Prolif. 120 hr (Ymin-Obs) (MKN45 cells) |
| --- | --- | --- | --- | --- |
| O=C1CCC(N2Cc3cc(O[C@H]4CCN(Cc5ccc6nc(N7CCCCC7=O)ccc6c5)C4)ccc3C2=O)C(=O)N1 (stereo partly drawn) [3-(1-oxo-5-{[(3S)-1-{[2-(2-oxopiperidin-1-yl)quinolin-6-yl]methyl}pyrrolidin-3-yl]oxy}-2,3-dihydro-1H-isoindol-2-yl)piperidine-2,6-dione] | 0.959 nM | 31.5 | 1.73 nM | 7.56 |
| O=C1CCC(N2Cc3cc(O[C@H]4CCN(Cc5ccc6nc(C(F)(F)F)ccc6c5)C4)ccc3C2=O)C(=O)N1 (stereo partly drawn) [3-(1-oxo-5-{[(3S)-1-{[2-(trifluoromethyl)quinolin-6-yl]methyl}pyrrolidin-3-yl]oxy}-2,3-dihydro-1H-isoindol-2-yl)piperidine-2,6-dione] | 7.29 nM | 24.72 | 5.42 nM | 8.76 |
| O=C1CCC(N2Cc3cc(O[C@H]4CCN(Cc5ccc6ncc(C(F)(F)F)cc6c5)C4)ccc3C2=O)C(=O)N1 (stereo partly drawn) [3-(1-oxo-5-{[(3S)-1-{[3-(trifluoromethyl)quinolin-6-yl]methyl}pyrrolidin-3-yl]oxy}-2,3-dihydro-1H-isoindol-2-yl)piperidine-2,6-dione] | 15.9 nM | 32 | 2.85 nM | 11.23 |
| O=C1CCC(N2Cc3cc(O[C@H]4CCN(Cc5ccc(C(F)(F)F)cn5)C4)ccc3C2=O)C(=O)N1 (stereo partly drawn) [3-(1-oxo-5-{[(3S)-1-{[5-(trifluoromethyl)pyridin-2-yl]methyl}pyrrolidin-3-yl]oxy}-2,3-dihydro-1H-isoindol-2-yl)piperidine-2,6-dione] | 363 nM | 53.66 | 52.6 nM | 65.6 |
| O=C1CCC(N2Cc3cc(O[C@H]4CCN(Cc5cc6ccc(C(F)(F)F)cc6cn5)C4)ccc3C2=O)C(=O)N1 (stereo partly drawn) [3-(1-oxo-5-{[(3S)-1-{[7-(trifluoromethyl)isoquinolin-3-yl]methyl}pyrrolidin-3-yl]oxy}-2,3-dihydro-1H-isoindol-2-yl)piperidine-2,6-dione] | 1.14 nM | 31 | 1.47 nM | 6.875 |
| [2H]c1nc2ccccc2cc1CN1CCC(Oc2ccc3c(c2)CN(C2CCC(=O)NC2=O)C3=O)C1 [3-(1-oxo-5-{[(3S)-1-{[(2-^2H)quinolin-3-yl]methyl}pyrrolidin-3-yl]oxy}-2,3-dihydro-1H-isoindol-2-yl)piperidine-2,6-dione] | 28.5 nM | 25.75 | 8.41 nM | 9.675 |
| [2H]c1ccc2cc(CN3CCC(Oc4ccc5c(c4)CN(C4CCC(=O)NC4=O)C5=O)C3)ccc2n1 [3-(1-oxo-5-{[(3S)-1-{[(2-^2H)quinolin-6-yl]methyl}pyrrolidin-3-yl]oxy}-2,3-dihydro-1H-isoindol-2-yl)piperidine-2,6-dione] | 26.9 nM | 29.5 | 4.09 nM | 9.14 |

More lines, in order of falling EC50 (MKN45 cells), values ahead:

| EC50 (MKN45 cells) | 293T-LentiX WEE1-ePL Degradation 4 hr (Ymin) (WEE1) | DC50 (WEE1) | Compound | MKN45 Cell Prolif. 120 hr (Ymin-Obs) (MKN45 cells) |
| --- | --- | --- | --- | --- |
| 842 nM | 33.76 | 36.9 nM | O=C1CCC(N2Cc3cc(O[C@H]4CCN(Cc5cncc(C(F)(F)F)c5)C4)ccc3C2=O)C(=O)N1 (stereo partly drawn) [3-(1-oxo-5-{[(3S)-1-{[5-(trifluoromethyl)pyridin-3-yl]methyl}pyrrolidin-3-yl]oxy}-2,3-dihydro-1H-isoindol-2-yl)piperidine-2,6-dione] | 54.82 |
| 257 nM | 39.87 | 29.3 nM | O=C1CCC(N2Cc3cc(O[C@H]4CCN(Cc5cc6ccccc6nc5C(F)(F)F)C4)ccc3C2=O)C(=O)N1 (stereo partly drawn) [3-(1-oxo-5-{[(3S)-1-{[2-(trifluoromethyl)quinolin-3-yl]methyl}pyrrolidin-3-yl]oxy}-2,3-dihydro-1H-isoindol-2-yl)piperidine-2,6-dione] | 73.03 |
| 51.6 nM | 29 | 38.9 nM | CC#Cc1ncc2cc(CN3CC[C@H](Oc4ccc5c(c4)CN(C4CCC(=O)NC4=O)C5=O)C3)ccc2n1 (stereo partly drawn) [3-(1-oxo-5-{[(3S)-1-{[2-(prop-1-yn-1-yl)quinazolin-6-yl]methyl}pyrrolidin-3-yl]oxy}-2,3-dihydro-1H-isoindol-2-yl)piperidine-2,6-dione] | 8.56 |
| 33.2 nM | 29.67 | 8.11 nM | O=C1CCC(N2Cc3cc(O[C@H]4CCN(Cc5ccc6nc(C(F)(F)F)ncc6c5)C4)ccc3C2=O)C(=O)N1 (stereo partly drawn) [3-(1-oxo-5-{[(3S)-1-{[2-(trifluoromethyl)quinazolin-6-yl]methyl}pyrrolidin-3-yl]oxy}-2,3-dihydro-1H-isoindol-2-yl)piperidine-2,6-dione] | 14.74 |
| 7.19 nM | 31 | 1.83 nM | O=C1CCC(N2Cc3cc(O[C@H]4CCN(Cc5ccc6nc(N7CCCC7=O)ccc6c5)C4)ccc3C2=O)C(=O)N1 (stereo partly drawn) [3-(1-oxo-5-{[(3S)-1-{[2-(2-oxopyrrolidin-1-yl)quinolin-6-yl]methyl}pyrrolidin-3-yl]oxy}-2,3-dihydro-1H-isoindol-2-yl)piperidine-2,6-dione] | 10.36 |
| 6.02 nM | 34 | 3.97 nM | O=C1CCC(N2Cc3cc(O[C@H]4CCN(Cc5ccc6nc(N7CCCC7)ccc6c5)C4)ccc3C2=O)C(=O)N1 (stereo partly drawn) [3-(1-oxo-5-{[(3S)-1-{[2-(pyrrolidin-1-yl)quinolin-6-yl]methyl}pyrrolidin-3-yl]oxy}-2,3-dihydro-1H-isoindol-2-yl)piperidine-2,6-dione] | 11.865 |
| 2.91 nM | 32 | 2.43 nM | O=C1CCC(N2Cc3cc(O[C@H]4CCN(Cc5ccc6nc(N7CCOCC7=O)ccc6c5)C4)ccc3C2=O)C(=O)N1 (stereo partly drawn) [3-(1-oxo-5-{[(3S)-1-{[2-(3-oxomorpholin-4-yl)quinolin-6-yl]methyl}pyrrolidin-3-yl]oxy}-2,3-dihydro-1H-isoindol-2-yl)piperidine-2,6-dione] | 6.88 |
| 2.88 nM | 35 | 6.39 nM | O=C1CCC(N2Cc3cc(O[C@H]4CCN(Cc5ccc6nc(Oc7ccccn7)ccc6c5)C4)ccc3C2=O)C(=O)N1 (stereo partly drawn) [3-(1-oxo-5-{[(3S)-1-{[2-(pyridin-2-yloxy)quinolin-6-yl]methyl}pyrrolidin-3-yl]oxy}-2,3-dihydro-1H-isoindol-2-yl)piperidine-2,6-dione] | 7.62 |
| 2.02 nM | 29.33 | 3.18 nM | CC#Cc1ccc2cc(CN3CC[C@H](Oc4ccc5c(c4)CN(C4CCC(=O)NC4=O)C5=O)C3)ccc2n1 (stereo partly drawn) [3-(1-oxo-5-{[(3S)-1-{[2-(prop-1-yn-1-yl)quinolin-6-yl]methyl}pyrrolidin-3-yl]oxy}-2,3-dihydro-1H-isoindol-2-yl)piperidine-2,6-dione] | 8.03 |
